The text below walks through data of BindingDB's records for doi:10.1021/acs.jmedchem.0c01826 (Athenex, 2021).

The structures appear in SMILES notation.

Series [1] can be described thus: Inhibition of P-gp (unknown origin) expressed in MES-SA/DX5 cells assessed as cell growth inhibition after 3 days in presence of 200 nM paclitaxel by MTT assay. A general note: Tetrazolium dyes change colour on reduction, which living cells bring about.
Series [2] in a line: Inhibition of P-gp (unknown origin) expressed in MCF7 cells assessed as increase in reversal of resistance to paclitaxel-induced cytotoxicity by measuring reduction in paclitaxel EC50 at 50 nM incubated for 72 hrs in presence of paclitaxel by SRB assay (Rvb = 11.5 nM). (Sulforhodamine B stains cellular protein and so reports cell mass.)
The nature of series [3]: Inhibition of P-gp (unknown origin) expressed in MES-SA/DX5 cells assessed as increase in reversal of resistance to paclitaxel-induced cytotoxicity by measuring reduction in paclitaxel EC50 at 50 nM incubated for 72 hrs in presence of paclitaxel by SRB assay (Rvb = 294.6 nM).

The EC50 is the midpoint of the concentration-response curve.

Consider `COc1cc2c(cc1OC)CN(CCc1ccc(NC(=O)c3cc(OC)c(OC)cc3NC(=O)c3cnc4ccccc4c3)cc1)CC2`, for which the EC50 in series [1] worked out at 16 nM.
For `COc1cc2c(cc1OC)CN(CCc1ccc(-n3nnc(-c4cc(OC)c(OC)cc4NC(=O)c4cnc5ccccc5c4)n3)cc1)CC2`, the EC50 in series [1] stood at 75 nM; in series [2], 7.9 nM; in series [3], 15 nM.
Regarding `COc1cc2c(cc1OC)CN(CCc1ccc(-n3nnc(-c4cc(OC)c(OC)cc4NC(=O)c4ccc5ccccc5n4)n3)cc1)CC2`, the results for the EC50 in series [2] and in series [3] were 12 nM and 110 nM, respectively.
The matching figures for `COc1cc2c(cc1OC)CN(CCc1ccc(-n3nnc(-c4cc(OC)c(OC)cc4NC(=O)c4cc5ccccc5cn4)n3)cc1)CC2`: 8.5 nM and 84 nM.
The matching figures for `COc1cc2c(cc1OC)CN(CCc1ccc(-n3nnc(-c4cc(OC)c(OC)cc4NC(=O)c4cccc5cccnc45)n3)cc1)CC2`: 5.4 nM and 69 nM.
The matching figures for `COc1cc2c(cc1OC)CN(CCc1ccc(-n3nnc(-c4cc(OC)c(OC)cc4NC(=O)c4nccc5ccccc45)n3)cc1)CC2`: 7.6 nM and 162 nM.
`COc1cc2c(cc1OC)CN(CCc1ccc(-n3nnc(-c4cc(OC)c(OC)cc4NC(=O)c4cncc5ccccc45)n3)cc1)CC2`: the values for the EC50 in series [2] and in series [3] were 9.1 nM and 89 nM, respectively.
The matching figures for `COc1cc2c(cc1OC)CN(CCc1ccc(-n3nnc(-c4cc(OC)c(OC)cc4NC(=O)c4cccnc4)n3)cc1)CC2`: 9.1 nM and 98 nM.
For `COc1cc2c(cc1OC)CN(CCc1ccc(-n3nnc(-c4cc(OC)c(OC)cc4NC(=O)c4ccc5ccccc5c4)n3)cc1)CC2`, the values for the EC50 in series [2] and in series [3] were 10 nM and 113 nM, respectively.
On the same counts, the results for `COc1cc2c(cc1OC)CN(CCc1ccc(-n3nnc(-c4cc(OC)c(OC)cc4NC(=O)c4cnccn4)n3)cc1)CC2` are 9.1 nM and 98 nM.
On the same counts, the results for `COc1cc2c(cc1OC)CN(CCc1ccc(-n3nnc(-c4cc(OC)c(OC)cc4NC(=O)c4ccccc4)n3)cc1)CC2` are 7.7 nM and 87 nM.
As to `COc1cc2c(cc1OC)CN(CCc1ccc(-n3nnc(-c4cc(OC)c(OC)cc4NC(=O)c4ccc(F)c(F)c4)n3)cc1)CC2`, the EC50 in series [2] came out at 10 nM; in series [3] it was 80 nM.
The matching figures for `COc1cc2c(cc1OC)CN(CCc1ccc(-n3nnc(-c4cc(OC)c(OC)cc4NC(=O)c4ccsc4)n3)cc1)CC2`: 6.4 nM and 66 nM.
As for `COc1cc2c(cc1OC)CN(CCc1ccc(-n3nnc(-c4cc(OC)c(OC)cc4NC(=O)c4ccoc4)n3)cc1)CC2`, the EC50 came out at 10 nM in series [2] and 84 nM in series [3].
On the same counts, the results for `COc1cc2c(cc1OC)CN(CCc1ccc(-n3nnc(-c4cc(OC)c(OC)cc4NC(=O)c4coc5ccccc5c4=O)n3)cc1)CC2` are 9 nM and 140 nM.
As to `COc1cc2c(cc1OC)CN(CCc1ccc(-n3nnc(-c4cc(OC)c(OC)cc4NC(=O)c4cc(=O)c5c(OC)cccc5o4)n3)cc1)CC2`, the results for the EC50 in series [2] and in series [3] were 7.4 nM and 5.9 nM, respectively.
On the same counts, the results for `COc1cc2c(cc1OC)CN(CCc1ccc(-n3nnc(-c4cc(OC)c(OC)cc4NC(=O)c4cc(=O)c5cc(F)ccc5o4)n3)cc1)CC2` are 8.1 nM and 7.5 nM.
As to `COc1cc2c(cc1OC)CN(CCc1ccc(-n3nnc(-c4cc(OC)c(OC)cc4NC(=O)c4cc(=O)c5cc(C)ccc5o4)n3)cc1)CC2`, the EC50 in series [2] was 6.5 nM; in series [3] it was 4 nM.
For `COc1cc2c(cc1OC)CN(CCc1ccc(-n3nnc(-c4cc(OC)c(OC)cc4NC(=O)c4cc(=O)c5ccccc5o4)n3)cc1)CC2` [Encequidar], the EC50 in series [1] was 13 nM; in series [2], 7.9 nM; in series [3] it was 4.9 nM.
